The supplement of paper PMC6315032

Columns and labels:
Experiment in all cases: apparent dissociation constant (pKDapp, Kinobeads competition, Cheng-Prusoff corrected) (-log10 M); higher = tighter binding
NEK3 = NEK3 (UniProt P51956); details: affinity matrix / lysate: Kinobeads, mixed HEK293/K-562/placenta lysate
EPHB4 = EPHB4 (UniProt P54760); details: affinity matrix / lysate: Kinobeads, mixed HEK293/K-562/placenta lysate
IRAK3 = IRAK3 (UniProt Q9Y616); details: affinity matrix / lysate: Kinobeads, mixed HEK293/K-562/placenta lysate
STK11 = STK11 (UniProt Q15831); details: affinity matrix / lysate: Kinobeads, mixed HEK293/K-562/placenta lysate
PIM1 = PIM1 (UniProt P11309); details: affinity matrix / lysate: Kinobeads, mixed HEK293/K-562/placenta lysate
PRKDC = PRKDC (UniProt P78527); details: affinity matrix / lysate: Lipid Kinobeads, mixed HeLa/Jurkat/K-562 lysate
PLK4 = PLK4 (UniProt O00444); details: affinity matrix / lysate: Kinobeads, mixed HEK293/K-562/placenta lysate
CDC42BPG = CDC42BPG (UniProt Q6DT37); details: affinity matrix / lysate: Kinobeads, mixed HEK293/K-562/placenta lysate
TNIK = TNIK (UniProt Q9UKE5); details: affinity matrix / lysate: Kinobeads, mixed HEK293/K-562/placenta lysate
TBK1 = TBK1 (UniProt Q9UHD2); details: affinity matrix / lysate: Kinobeads, mixed HEK293/K-562/placenta lysate
PIK3C3 = PIK3C3 (UniProt Q8NEB9); details: affinity matrix / lysate: Lipid Kinobeads, mixed HeLa/Jurkat/K-562 lysate
PRKCI = PRKCI (UniProt P41743); details: affinity matrix / lysate: Kinobeads, mixed HEK293/K-562/placenta lysate
MYLK = MYLK (UniProt Q15746); details: affinity matrix / lysate: Kinobeads, mixed HEK293/K-562/placenta lysate
PIK3CD = biological target: T1, PIK3CD (UniProt O00329)
T1 sequence (whole entry): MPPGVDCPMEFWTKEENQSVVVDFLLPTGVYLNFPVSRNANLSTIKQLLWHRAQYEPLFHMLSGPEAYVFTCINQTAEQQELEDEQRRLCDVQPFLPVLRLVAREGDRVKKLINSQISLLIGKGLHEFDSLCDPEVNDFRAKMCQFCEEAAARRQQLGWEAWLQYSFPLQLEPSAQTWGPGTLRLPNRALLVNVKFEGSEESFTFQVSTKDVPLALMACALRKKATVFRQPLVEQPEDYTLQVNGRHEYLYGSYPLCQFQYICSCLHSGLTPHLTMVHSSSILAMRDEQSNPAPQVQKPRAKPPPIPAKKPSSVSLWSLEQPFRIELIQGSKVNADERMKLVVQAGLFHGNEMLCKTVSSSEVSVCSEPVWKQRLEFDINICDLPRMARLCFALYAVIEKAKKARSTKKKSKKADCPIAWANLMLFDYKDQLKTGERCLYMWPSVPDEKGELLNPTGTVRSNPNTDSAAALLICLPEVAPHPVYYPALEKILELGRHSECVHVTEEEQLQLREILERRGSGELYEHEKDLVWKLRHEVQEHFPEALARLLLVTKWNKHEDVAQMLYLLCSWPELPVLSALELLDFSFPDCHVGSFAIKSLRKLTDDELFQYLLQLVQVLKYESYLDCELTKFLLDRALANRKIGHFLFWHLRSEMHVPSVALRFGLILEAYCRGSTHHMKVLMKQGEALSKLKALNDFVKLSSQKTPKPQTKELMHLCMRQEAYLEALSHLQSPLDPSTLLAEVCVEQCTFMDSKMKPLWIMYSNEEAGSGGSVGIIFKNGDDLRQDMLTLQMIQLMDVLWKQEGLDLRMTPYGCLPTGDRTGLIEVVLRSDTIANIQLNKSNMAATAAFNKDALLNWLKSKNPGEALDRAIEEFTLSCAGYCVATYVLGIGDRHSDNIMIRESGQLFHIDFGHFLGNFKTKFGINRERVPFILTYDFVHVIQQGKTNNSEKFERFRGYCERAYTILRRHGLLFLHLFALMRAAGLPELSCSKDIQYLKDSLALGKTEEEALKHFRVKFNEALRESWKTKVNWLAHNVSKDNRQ

LOC100128443 = details: affinity matrix / lysate: Kinobeads, mixed HEK293/K-562/placenta lysate
PKN2 = PKN2 (UniProt Q16513); details: affinity matrix / lysate: Kinobeads, mixed HEK293/K-562/placenta lysate
RIPK2 = RIPK2 (UniProt O43353); details: affinity matrix / lysate: Kinobeads, mixed HEK293/K-562/placenta lysate
MAP3K2 = MAP3K2 (UniProt Q9Y2U5); details: affinity matrix / lysate: Kinobeads, mixed HEK293/K-562/placenta lysate
CSNK2A2 = CSNK2A2 (UniProt P19784)
PKMYT1 = PKMYT1 (UniProt Q99640); details: affinity matrix / lysate: Kinobeads, mixed HEK293/K-562/placenta lysate
CSNK1E = CSNK1E (UniProt P49674); details: affinity matrix / lysate: Kinobeads, mixed HEK293/K-562/placenta lysate
BCR = BCR (UniProt P11274); details: affinity matrix / lysate: Kinobeads, mixed HEK293/K-562/placenta lysate
NEK7 = NEK7 (UniProt Q8TDX7); details: affinity matrix / lysate: Kinobeads, mixed HEK293/K-562/placenta lysate
[1] = affinity matrix / lysate: Lipid Kinobeads, mixed HeLa/Jurkat/K-562 lysate
[2] = affinity matrix / lysate: Kinobeads, mixed HEK293/K-562/placenta lysate

apparent dissociation constant (-log10 M) (NEK3)	apparent dissociation constant (-log10 M) (EPHB4)	apparent dissociation constant (-log10 M) (IRAK3)	apparent dissociation constant (-log10 M) (STK11)	apparent dissociation constant (-log10 M) (PIM1)	apparent dissociation constant (-log10 M) (PRKDC)	apparent dissociation constant (-log10 M) (PLK4)	apparent dissociation constant (-log10 M) (CDC42BPG)	apparent dissociation constant (-log10 M) (TNIK)	apparent dissociation constant (-log10 M) (TBK1)	apparent dissociation constant (-log10 M) (PIK3C3)	apparent dissociation constant (-log10 M) (PRKCI)	apparent dissociation constant (-log10 M) (MYLK)	apparent dissociation constant (-log10 M) (PIK3CD; [1])	apparent dissociation constant (-log10 M) (LOC100128443)	apparent dissociation constant (-log10 M) (PKN2)	apparent dissociation constant (-log10 M) (RIPK2)	apparent dissociation constant (-log10 M) (MAP3K2)	apparent dissociation constant (-log10 M) (CSNK2A2; [2])	apparent dissociation constant (-log10 M) (CSNK2A2; [1])	apparent dissociation constant (-log10 M) (PKMYT1)	apparent dissociation constant (-log10 M) (CSNK1E)	apparent dissociation constant (-log10 M) (BCR)	apparent dissociation constant (-log10 M) (NEK7)	apparent dissociation constant (-log10 M) (PIK3CD; [2])	SMILES
< 6	< 6	< 6	< 6	< 6	6.18	< 6	< 6	< 6	< 6	< 6	< 6	< 6	6.57	< 6	< 6	< 6	< 6	< 6	< 6	< 6	< 6	< 6	< 6	–	COc1ccc(-c2ccc3c(N4CCOC[C@@H]4C)nc(N4CCOC[C@@H]4C)nc3n2)cc1CO [AZD8055]
< 6	< 6	< 6	< 6	< 6	< 6	< 6	< 6	< 6	< 6	< 6	< 6	< 6	< 6	< 6	< 6	< 6	< 6	< 6	< 6	< 6	< 6	< 6	< 6	< 6	CCNC(=O)Nc1ccc(-c2nc(N3CCOC[C@@H]3C)c3c(n2)C(C)(C)S(=O)(=O)C3)cc1 [CZ415]
